Source: patent publication US20230149355A1, “COMPOSITIONS AND METHODS FOR MODULATING TRP CHANNEL ACTIVITY” (priority 2020, published 2023)

Experiments:
intestinal motility = assay: Zebrafish intestinal motility (PIV-Lab velocity analysis); type: in vivo
Excerpt: The zebrafish intestinal motility is quantified through recorded image series of zebrafish intestine using the method similar as previously described (Ganz et al., 2018). Intestinal p velocity and v velocity were used to estimate intestinal motility in zebrafish as previously described using the PIV-Lab MATLAB app (Ganz et al., 2018). A positive value of the μ velocity indicates an anterograde intestinal movement and a negative value of the μ velocity indicates a retrograde intestinal movement. The time-course p velocity number is plotted as heatmaps. When calculating the mean velocity, only the mean velocity magnitude was calculated, which therefore doesn't account for the movement direction. The MTrackJ FIJI plugin was used to quantify the mean velocity magnitude (Meijering et al., 2012).

E. tarda = assay: Intestinal E. tarda mCherry accumulation in zebrafish treated with AhR inhibitors; type: in vivo; settings: AhR inhibitor 1 μM or folic acid 10 μM, 3 dpf to 6 dpf
Experimental: For E. tarda colonization experiments, fertilized zebrafish eggs were collected, sorted and transferred into a cell culture flask containing 80 mL GZM at 0 dpf. At 3 dpf, dead embryos and 60 mL GZM were removed and replaced with 50 mL fresh GZM in each flask. To facilitate consistent commensal gut bacterial colonization, an additional 10 mL of filtered system water (5 μm filter, SLSV025LS, Millipore) were added to each flask. Overnight E. tarda mCherry culture was harvested, washed three times with GZM. 150 μL of GZM-washed E. tarda mCherry culture were inoculated into each flask. The E. tarda concentration is ˜10^6 CFU/ml. […] At 6 dpf, zebrafish larvae were subjected to fluorescence imaging analysis or CFU quantification. For fluorescence imaging analysis, zebrafish larvae were anesthetized with Tricaine ([…]), mounted in 3% methylcellulose and imaged with a Leica M205 FA upright fluorescence stereomicroscope equipped with a Leica DFC 365FX camera. For CFU quantification, digestive tracts were dissected and transferred into 1 mL sterile PBS which was then mechanically disassociated using a Tissue-Tearor (BioSpec Products, 985370). […] The mCherry+ colonies were quantified from each plate and E. tarda colony forming units (CFUs) per fish were calculated. […]

AhR signaling = settings: 2-hour 10 μM and 3-day 0.5 μM treatment; cited from earlier work
human TRPA1 = human TRPA1 (Homo sapiens, UniProt O75762); assay: Ca2+ influx (Calcium 6 fluorescence) in human TRPA1 expressing HEK-293T cells; type: cell-based
Experimental: (§1) HEK-293T cells were cultured in DMEM (Thermofisher Scientific, Waltham, Mass.) and supplemented with 10% fetal bovine serum (FBS) (Thermofisher Scientific), penicillin (100 units/mL) and streptomycin (0.1 mg/mL). Cells were plated on 100 mm tissue culture plates coated with poly-D-lysine (Sigma Aldrich, Saint Louis, Mo.) and grown to ˜60% confluence. The cells were transiently transfected for 16-24 hours with either human or mouse orthologs of TRPA1 using Fugene 6 transfection reagents and Opti-MEM (Thermofisher Scientific) according to the manufacturer's protocol. Subsequently, cells were trypsinized, re-suspended and re-plated onto poly-D-lysine coated 96-well plates (Krystal black walled plates, Genesee Scientific) at 5×10^5 cells/mL (100 μL/well) and allowed to grow for another 16-20 hrs prior to the experiments. Cells were maintained as monolayers in a 5% CO2 incubator at 37° C.
(§2) Measurements of changes in intracellular Ca^2+ concentrations ([Ca^2+]i) were performed as described previously (Caceres et al., 2017). In brief, cells in 96-well plates were loaded with Calcium 6, a no-wash fluorescent indicator, for 1.5 hrs (Molecular Devices, San Jose, Calif.) and then transferred to a FlexStation III benchtop scanning fluorometer chamber (Molecular Devices). Fluorescence measurements in the FlexStation were performed at 37° C. (Ex:485 nm, Em: 525 nm at every 1.8 s). After recording baseline fluorescence, agonists (indole, IAld, cinnamaldehyde) were added and fluorescence was monitored for a total of 60 s. […] The change in fluorescence was measured as Fmax-F0, where Fmax is the maximum fluorescence and F0 is the baseline fluorescence measured in each well.

mouse TRPA1 = biological target: T1, mouse TRPA1 (Mus musculus, UniProt Q8BLA8); assay: Ca2+ influx (Calcium 6 fluorescence) in mouse Trpa1-expressing HEK-293T cells; type: cell-based
T1 construct: expressed in transfected cells; host or cells: HEK-293T
Experimental: as §1, §2

zebrafish EECs (Trpa1) = assay: In vivo EEC calcium, Tg(neurod1:Gcamp6f) zebrafish
Experimental: To record in vivo EEC activity using the Tg(neurod1:Gcamp6f) system, a published protocol with slight modification (Ye et al., 2019) was used. In brief, unanesthetized zebrafish larvae were gently mounted in 3% methylcellulose. Excess water was removed and zebrafish larvae were gently positioned with right side up. Zebrafish were then moved onto an upright Leica M205 FA fluorescence stereomicroscope equipped with a Leica DFC 365FX camera. The zebrafish larvae were allowed to recover for 2 mins before 100 μL of test agent was pipetted directly in front of the mouth region. Images were then recorded every 10 seconds. The data shown in FIG. 2O-R, depicting the EEC responses to E. tarda stimulation, were obtained by mounting unanesthetized zebrafish larvae in 1% low melting agarose. A window (5×5 mm) was cut to expose the head region of the zebrafish. 10 μL of E. tarda culture [˜10^9 Colony Forming Unit (CFU)] were delivered at the zebrafish mouth area. Images were recorded every 10 secs for 20 mins. Image processing and analysis were performed using FIJI software. Time-lapse fluorescence images were first aligned to correct for experimental drift using the plugin “align slices in stack.” Normalized correlation coefficient matching and bilinear interpolation methods for subpixel translation were used for aligning slices (Tseng et al., 2012). The plugin “rolling ball background subtraction” with the rolling ball radius=10 pixels was used to remove the large spatial variation of background intensities. The Gcamp6f fluorescence intensity in the intestinal region was then calculated for each time point. The ratio of maximum fluorescence (Fmax) and the initial fluorescence (F0) was used to measure EEC calcium responses.
For EEC Trpa1 activation using the Optovin platform, zebrafish larvae were treated with 10 μM Optovin overnight. Following Optovin treatment, unanesthetized zebrafish were mounted in 1% LMA and imaged under a 780 upright Zeiss confocal microscope using 20× water objective lenses. For all the experiments, the mid-intestine region was imaged (FIG. 10D). The intestinal epithelium was selected as the region of interest (ROI) (FIG. 10A). Serial images were obtained at 1 s/frame. A 405 nm pulse of light was applied to the ROI at 1 pulse/10 s. For some experiments (FIG. 7D-F, FIG. 10B-G), the images were obtained at 10 s/frame. When measuring Optovin effects on intestinal motility in ret−/−, sox10−/− or tph1b−/− zebrafish larvae, embryos were collected from heterozygous zebrafish. ret−/− zebrafish were identified by lack of ENS and deflated swim bladder (Knight et al., 2011), sox10−/− zebrafish were identified by lack of pigment (Rolig et al., 2017), and tph1b−/− zebrafish were identified by PCR-based genotyping (Tornini et al., 2017).
To determine whether Optovin-UV or ChR2 was sufficient to activate EECs, Tg(neurod1:Gcamp6f) zebrafish were used. […] The Gcamp6f signal was recorded with 488 nm laser intensity less than 0.5. The zebrafish intestinal motility is quantified through recorded image series of zebrafish intestine using the method similar as previously described (Ganz et al., 2018). […] When calculating the mean velocity, only the mean velocity magnitude was calculated, which therefore doesn't account for the movement direction. The MTrackJ FIJI plugin was used to quantify the mean velocity magnitude (Meijering et al., 2012).

vagal sensory neurons = assay: In vivo calcium imaging of vagal sensory ganglia after microgavage; set-up: species or system zebrafish; settings: WT; enteric microgavage ~8 nl, AITC 100 mM, indole 1 mM, IAld 1 mM
Experimental: For delivering bacterial or chemicals specifically to the intestine, the established microgavage technique (Cocchiaro and Rawls, 2013) was adopted. Zebrafish were anesthetized with 1 mg/mL α-Bungarotoxin (α-BTX) and the gavage procedure was performed as previously described using microinjection station (Cocchiaro and Rawls, 2013). For bacteria gavage experiments, 1 ml of overnight bacterial culture was harvested, pelleted, washed with PBS and resuspended in 100 ul PBS.˜8 nl was then delivered into the zebrafish intestine using microgavage. The gavaged zebrafish was then transferred into egg water and mounted in 1% LMA for imaging. For chemical gavage experiments, ˜8 nl of AITC (100 mM), indole (1 mM) and IAld (1 mM) was gavaged into the intestine.
Tg(neurod1:Gcamp6f); Tg(neurod1:TagRFP) zebrafish were used to record vagal sensory ganglia calcium activity in vivo. Zebrafish were anesthetized with 1 mg/mL α-Bungarotoxin (α-BTX) and gavaged with chemical compounds or bacteria as described (Naumann et al., 2016). Zebrafish larvae were mounted in 1% LMA and imaged under a Zeiss 780 upright confocal microscope. Z-stack images of the entire vagal ganglia were collected as serial images at 10 mins/frame and processed in FIJI. Individual vagal sensory neurons were identified and the Gcamp6f to TagRFP fluorescence ratios of individual vagal sensory neurons were calculated.

human TRPA1, sequence (O75762 whole entry): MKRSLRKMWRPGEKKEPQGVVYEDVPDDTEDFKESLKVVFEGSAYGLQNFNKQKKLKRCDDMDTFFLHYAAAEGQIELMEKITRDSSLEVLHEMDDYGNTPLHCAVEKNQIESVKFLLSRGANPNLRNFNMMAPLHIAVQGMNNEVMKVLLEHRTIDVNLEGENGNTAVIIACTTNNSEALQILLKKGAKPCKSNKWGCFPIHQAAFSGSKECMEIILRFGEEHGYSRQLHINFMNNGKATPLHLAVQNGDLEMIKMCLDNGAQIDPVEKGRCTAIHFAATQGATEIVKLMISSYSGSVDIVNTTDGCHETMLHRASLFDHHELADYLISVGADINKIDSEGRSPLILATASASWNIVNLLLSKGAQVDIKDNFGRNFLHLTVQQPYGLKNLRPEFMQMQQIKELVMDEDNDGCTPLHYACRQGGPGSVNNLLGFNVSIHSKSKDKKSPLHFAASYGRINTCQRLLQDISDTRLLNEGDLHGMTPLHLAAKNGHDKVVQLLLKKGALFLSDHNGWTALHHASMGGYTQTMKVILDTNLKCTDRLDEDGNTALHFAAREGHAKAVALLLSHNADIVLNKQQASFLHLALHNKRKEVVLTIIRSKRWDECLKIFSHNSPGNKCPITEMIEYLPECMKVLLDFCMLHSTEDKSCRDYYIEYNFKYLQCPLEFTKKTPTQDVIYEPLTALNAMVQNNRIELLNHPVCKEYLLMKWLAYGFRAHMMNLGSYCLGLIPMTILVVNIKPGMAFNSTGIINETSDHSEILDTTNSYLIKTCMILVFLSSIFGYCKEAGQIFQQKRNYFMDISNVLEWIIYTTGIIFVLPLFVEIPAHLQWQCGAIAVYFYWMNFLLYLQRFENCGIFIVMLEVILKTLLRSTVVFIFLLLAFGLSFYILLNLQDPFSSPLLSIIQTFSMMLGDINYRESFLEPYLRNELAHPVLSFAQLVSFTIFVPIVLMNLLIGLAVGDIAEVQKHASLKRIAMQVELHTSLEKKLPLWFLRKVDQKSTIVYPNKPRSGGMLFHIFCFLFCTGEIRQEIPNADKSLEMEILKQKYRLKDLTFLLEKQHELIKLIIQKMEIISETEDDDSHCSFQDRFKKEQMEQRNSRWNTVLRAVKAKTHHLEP
T1 sequence (Q8BLA8 whole entry): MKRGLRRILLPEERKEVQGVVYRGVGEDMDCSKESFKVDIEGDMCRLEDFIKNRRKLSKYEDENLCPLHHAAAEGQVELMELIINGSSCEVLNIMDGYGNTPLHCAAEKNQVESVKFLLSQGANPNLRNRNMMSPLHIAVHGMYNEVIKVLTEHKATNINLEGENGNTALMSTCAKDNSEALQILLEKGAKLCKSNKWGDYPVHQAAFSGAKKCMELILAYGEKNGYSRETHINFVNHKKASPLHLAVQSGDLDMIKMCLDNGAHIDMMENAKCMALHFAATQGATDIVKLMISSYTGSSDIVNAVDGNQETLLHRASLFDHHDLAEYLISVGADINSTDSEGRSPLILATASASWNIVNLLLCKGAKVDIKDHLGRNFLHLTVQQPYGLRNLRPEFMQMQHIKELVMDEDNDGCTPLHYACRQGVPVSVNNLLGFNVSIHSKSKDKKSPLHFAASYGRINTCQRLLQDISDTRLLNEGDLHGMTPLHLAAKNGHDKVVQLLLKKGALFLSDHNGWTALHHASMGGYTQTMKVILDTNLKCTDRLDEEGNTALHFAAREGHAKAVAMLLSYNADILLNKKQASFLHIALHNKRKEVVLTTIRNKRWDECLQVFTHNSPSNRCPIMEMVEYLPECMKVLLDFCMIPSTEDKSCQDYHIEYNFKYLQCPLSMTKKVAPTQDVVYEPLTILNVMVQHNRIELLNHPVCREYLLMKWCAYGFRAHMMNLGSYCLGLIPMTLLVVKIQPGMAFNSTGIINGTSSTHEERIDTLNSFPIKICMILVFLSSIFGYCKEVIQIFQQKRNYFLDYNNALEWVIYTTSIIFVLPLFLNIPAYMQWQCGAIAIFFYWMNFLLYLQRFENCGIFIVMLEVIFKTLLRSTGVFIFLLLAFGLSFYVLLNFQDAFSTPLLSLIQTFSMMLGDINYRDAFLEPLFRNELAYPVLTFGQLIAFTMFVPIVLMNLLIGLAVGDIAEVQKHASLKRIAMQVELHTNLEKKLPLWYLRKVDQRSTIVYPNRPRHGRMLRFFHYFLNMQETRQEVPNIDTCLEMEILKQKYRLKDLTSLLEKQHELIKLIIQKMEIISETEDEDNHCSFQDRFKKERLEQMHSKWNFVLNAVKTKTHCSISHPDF

## Cc1ccccc1N=Nc1ccc(NC(=O)c2ccnn2C)c(C)c1 [CH223191]
Intestinal motility; AhR inhibitor 10 μM or folic acid 10 μM for 2 hours
  Effect on Optovin-UV induced intestinal motility change: insufficient to block
E. tarda
  Effect on E. tarda intestinal accumulation: insufficient to block
AhR signaling
  Inhibition of larvae zebrafish AhR signaling: sufficient to inhibit

## O=Cc1c[nH]c2ccccc12 [IAld, indole-3-carboxaldehyde]
Human TRPA1
  Activation of human TRPA1 receptor transfected into HEK cells: activated
Human TRPA1; efficiency comparable to cinnamaldehyde (CAD)
  TRPA1 agonist efficacy: full TRPA1 agonist activity
Human TRPA1; human TRPA1 expressing HEK-293T cells, normalized to 1 mM cinnamaldehyde (CAD), read-out: EC50, integrated Calcium 6 fluorescence response above baseline (Fmax-F0; maximal change in Ca2+ influx)
  EC50: 77.7 µM
Mouse TRPA1; compared with human TRPA1
  Activation of mouse Trpa1: activated mouse Trpa1, but in a less potent manner
Mouse TRPA1; mouse TRPA1, normalized to 1 mM cinnamaldehyde (CAD), read-out: EC50, dose-response effects on mouse TRPA1
  EC50: 189 µM
Zebrafish EECs (Trpa1); trpa1b-dependent
  Zebrafish EEC activation (Gcamp6f fluorescence): strongly activated
Vagal sensory neurons
  Gcamp6f fluorescence in a subset of vagal sensory neurons: increased

## Cc1cc(/C=C2/SC(=S)NC2=O)c(C)n1-c1cccnc1 [Optovin]
Zebrafish EECs (Trpa1); WT larvae pretreated with Optovin 10 μM overnight, 405 nm
  EEC [Ca2+]i (Gcamp6f fluorescence) after UV light activation: significantly increased
Zebrafish EECs (Trpa1); trpa1b−/− larvae pretreated with Optovin
  EEC [Ca2+]i after UV light exposure: did not increase
Intestinal motility; EEC-ablated zebrafish
  Intestinal motility after Optovin treatment and UV activation: failed to induce intestinal motility
Intestinal motility; WT larvae, middle intestine
  Velocity of intestinal motility after Optovin-UV Trpa1 activation: increased

## CCC(=N\O)/C(C)=C/c1ccc(F)cc1 [A967079]
Human TRPA1; human
  Effect on indole- and IAld-induced human Trpa1 activation: blocked
Mouse TRPA1; mouse
  Effect on indole- and IAld-induced mouse Trpa1 activation: blocked
Mouse TRPA1; mouse Trpa1-expressing HEK-293T cells, normalized to 100 μM Indole
  IC50: 0.315 µM
